Reference: ChEMBL document CHEMBL4219129, “Design, synthesis and biological evaluation of spiropyrimidinetriones oxazolidinone derivatives as antibacterial agents” (2018)
≈ marks a conversion by molar mass, not a printed value.

Columns and labels:
Format in all cases: functional
Staphylococcus aureus [1] = experiment: Antibacterial activity against methicillin-resistant Staphylococcus aureus DB-00026
Staphylococcus aureus [2] = experiment: Antibacterial activity against methicillin-resistant Staphylococcus aureus USA300 BAA-1556
[3] = test system: Staphylococcus epidermidis; experiment: Antibacterial activity against linezolid-resistant Staphylococcus epidermidis 1089191
Staphylococcus aureus [4] = experiment: Antibacterial activity against methicillin-resistant Staphylococcus aureus 1201984
Staphylococcus aureus [5] = experiment: Antibacterial activity against Staphylococcus aureus Mu50 ATCC 700699
Staphylococcus aureus [6] = experiment: Antibacterial activity against methicillin-resistant Staphylococcus aureus 562
[7] = test system: Staphylococcus epidermidis; experiment: Antibacterial activity against Staphylococcus epidermidis ATCC 12228
Staphylococcus aureus [8] = experiment: Antibacterial activity against PVL positive Staphylococcus aureus
Staphylococcus aureus [9] = experiment: Antibacterial activity against Staphylococcus aureus FDA 209P
Staphylococcus aureus [10] = experiment: Antibacterial activity against […] Staphylococcus aureus ATCC 13709 SMITH
[11] = test system: Staphylococcus epidermidis; experiment: Antibacterial activity against linezolid-resistant Staphylococcus epidermidis 1117174
Escherichia coli [12] = experiment: Antibacterial activity against Escherichia coli MG1655; conditions: K-12 substr. MG1655
Staphylococcus aureus [13] = experiment: Antibacterial activity against linezolid-resistant Staphylococcus aureus O-128
Staphylococcus aureus [14] = experiment: Antibacterial activity against Staphylococcus aureus ATCC 29213
[15] = test system: Staphylococcus epidermidis; experiment: Antibacterial activity against methicillin-resistant Staphylococcus epidermidis ATCC 35984
Escherichia coli [16] = experiment: Antibacterial activity against TolC-deficient Escherichia coli

SMILES	MIC (Staphylococcus aureus [1]) [µg/mL]	MIC (Staphylococcus aureus [2]) [µg/mL]	MIC [3] [µg/mL]	MIC (Staphylococcus aureus [4]) [µg/mL]	MIC (Staphylococcus aureus [5]) [µg/mL]	MIC (Staphylococcus aureus [6]) [µg/mL]	MIC [7] [µg/mL]	MIC (Staphylococcus aureus [8]) [µg/mL]	MIC (Staphylococcus aureus [9]) [µg/mL]	MIC (Staphylococcus aureus [10]) [µg/mL]	MIC [11] [µg/mL]	MIC (Escherichia coli [12]) [µg/mL]	MIC (Staphylococcus aureus [13]) [µg/mL]	MIC (Staphylococcus aureus [14]) [µg/mL]	MIC [15] [µg/mL]	MIC (Escherichia coli [16]) [µg/mL]
O=C1NC(=O)C2(Cc3cc(-c4ccc(N5C[C@H](CNC(=O)C(F)(F)F)OC5=O)cc4F)ccc3N3CCCC32)C(=O)N1 (stereo partly specified)	16 (≈ 27.1 µM)	16 (≈ 27.1 µM)	32 (≈ 54.3 µM)	8 (≈ 13.6 µM)	8 (≈ 13.6 µM)	8 (≈ 13.6 µM)	8 (≈ 13.6 µM)	8 (≈ 13.6 µM)	16 (≈ 27.1 µM)	32 (≈ 54.3 µM)	32 (≈ 54.3 µM)	> 32	32 (≈ 54.3 µM)	32 (≈ 54.3 µM)	4 (≈ 6.79 µM)	16 (≈ 27.1 µM)
O=C1O[C@@H](CO)CN1c1ccc2c(c1)CC1(C(=O)NNC1=O)C1COCCN21 (stereo partly specified)	> 32	> 32	> 32	> 32	> 32	> 32	> 32	> 32	> 32	> 32	32 (≈ 82.4 µM)	> 32	> 32	> 32	> 32	> 32
CC(=O)NC[C@H]1CN(c2ccc3c(c2)CC2(C(=O)NNC2=O)C2COCCN32)C(=O)O1 (stereo partly specified)	> 32	> 32	> 32	> 32	> 32	> 32	> 32	> 32	> 32	> 32	32 (≈ 74.5 µM)	> 32	> 32	> 32	> 32	> 32
CCOC(=O)NC[C@H]1CN(c2ccc(-c3ccc4c(c3)CC3(C(=O)NC(=O)NC3=O)C3CCCN43)c(F)c2)C(=O)O1 (stereo partly specified)	8 (≈ 14.1 µM)	8 (≈ 14.1 µM)	> 32	8 (≈ 14.1 µM)	4 (≈ 7.07 µM)	4 (≈ 7.07 µM)	4 (≈ 7.07 µM)	8 (≈ 14.1 µM)	8 (≈ 14.1 µM)	> 32	> 32	> 32	32 (≈ 56.6 µM)	8 (≈ 14.1 µM)	4 (≈ 7.07 µM)	8 (≈ 14.1 µM)
O=C1NC(=O)C2(Cc3cc(N4C[C@H](CO)OC4=O)ccc3N3CCOCC32)C(=O)N1 (stereo partly specified)	> 32	> 32	> 32	> 32	> 32	> 32	> 32	> 32	> 32	> 32	32 (≈ 76.9 µM)	> 32	> 32	> 32	> 32	> 32
O=C1O[C@@H](CO)CN1c1ccc(-c2ccc3c(c2)CC2(C(=O)NNC2=O)C2CCCN32)c(F)c1 (stereo partly specified)	8 to 16 (≈ 17.2 to 34.3 µM)	32 (≈ 68.6 µM)	> 32	> 32	16 (≈ 34.3 µM)	2 to 32 (≈ 4.29 to 68.6 µM)	2 to 32 (≈ 4.29 to 68.6 µM)	> 32	32 (≈ 68.6 µM)	≥ 32	≥ 32	> 32	> 32	4 to 32 (≈ 8.58 to 68.6 µM)	–	> 32
CCC(=O)NC[C@H]1CN(c2ccc(-c3ccc4c(c3)CC3(C(=O)NC(=O)NC3=O)C3COCCN43)c(F)c2)C(=O)O1 (stereo partly specified)	16 (≈ 28.3 µM)	16 (≈ 28.3 µM)	> 32	16 (≈ 28.3 µM)	4 (≈ 7.07 µM)	4 (≈ 7.07 µM)	4 (≈ 7.07 µM)	16 (≈ 28.3 µM)	16 (≈ 28.3 µM)	> 32	32 (≈ 56.6 µM)	> 32	32 (≈ 56.6 µM)	8 (≈ 14.1 µM)	4 (≈ 7.07 µM)	4 (≈ 7.07 µM)
